The text below walks through data of PMC10947119 (Angewandte Chemie (International Ed. in English), 2023).

The structures appear in SMILES notation. Read-outs that look alike come from different tables or passages of the source.

Test [1] concerns coaBC CRISPRi knockdown Mtb mutant (Mtb H37RvMA). Format: cell-based, Mycobacterium tuberculosis. As to conditions: highest ATc concentrations compatible with uninhibited proliferation.
Test [2] concerns coaD CRISPRi knockdown Mtb mutant (Mtb H37RvMA). Format: cell-based, Mycobacterium tuberculosis.

On to `O=C(O)c1cnn(-c2ccccc2)c1OCCCc1c[nH]c2ccccc12` [compound 20], for which, in test [1], the “Effect of ATc (coaBC silencing) on susceptibility” value is reported as “little‐to‐no effect”. Also, the “minimum inhibitory concentration, MIC” value in test [2] is recorded as “≈ 60 μM”. Also, the “Effect of ATc (coaD silencing) on susceptibility” value (“Effect of ATc (coaD silencing)” for short) in test [2] (1.6 and 0.8 ng/mL ATc) is “enhanced in an ATc concentration‐dependent manner”.

With `CO[C@H]1/C=C/O[C@@]2(C)Oc3c(C)c(O)c4c(O)c(c(/C=N/N5CCN(C)CC5)c(O)c4c3C2=O)NC(=O)/C(C)=C\C=C\[C@H](C)[C@H](O)[C@@H](C)[C@@H](O)[C@@H](C)[C@H](OC(C)=O)[C@@H]1C` [rifampicin, reference compound], in test [2], the “Effect of ATc (coaD silencing)” value was “did not render the coaD CRISPRi Mtb mutant more susceptible”.

Turning to `NNC(=O)c1ccncc1` [isoniazid, reference compound], the “Effect of ATc (coaD silencing)” value in test [2] is recorded as “did not render the coaD CRISPRi Mtb mutant more susceptible”.
